system: original DH5α (with null vector) (pQE-2- Original); experiment: microbe, parasite or virus in culture; type: cell-based, E. coli; settings: (pQE-2- Original) DH5α
Experimental: (§1) The MIC was determined for E. coli DH5α cells, E. coli DH5α cells with vector and E. coli DH5α cells with bla NDM-1 carrying vectors. […] We next assayed the activities of these drugs in combination with novel screened molecules.
(§2) The MICs of four antibiotics were calculated (Table 4).

Row | SMILES | Minimum inhibitory concentration
1 | CO/N=C(\C(=O)N[C@@H]1C(=O)N2C(C(=O)O)=C(COC(C)=O)CS[C@H]12)c1csc(N)n1 [Cephotaxime] | 0.25 µg/mL

same assay, conditions: Escherichia coli, (pQE-2- Original) DH5α, read-out: Minimum inhibitory concentration

Row | SMILES | MIC
2 | C[C@@H](O)[C@H]1C(=O)N2C(C(=O)O)=C(S[C@@H]3CN[C@H](C(=O)N(C)C)C3)[C@H](C)[C@H]12 [Meropenem] | 0.5 µg/mL
3 | CC(C)(O/N=C(\C(=O)N[C@@H]1C(=O)N2C(C(=O)[O-])=C(C[n+]3ccccc3)CS[C@H]12)c1csc(N)n1)C(=O)O [Ceftazidime] | 0.25 µg/mL
4 | C[C@@H](O)[C@H]1C(=O)N2C(C(=O)O)=C(SCCN=CN)C[C@H]12 [Imipenem] | 0.5 µg/mL
5 | CO[C@@]1(NC(=O)Cc2cccs2)C(=O)N2C(C(=O)O)=C(COC(N)=O)CS[C@@H]21 [Cefoxitin] | 2 µg/mL

system: E. coli DH5α transformed with recombinant NDM-1 (pQE-2- NDM-1); experiment: microbe, parasite or virus in culture; type: cell-based; settings: (pQE-2- NDM-1) DH5α
Experimental: as §1, §2

Row | SMILES | Minimum inhibitory concentration
6 | C[C@@H](O)[C@H]1C(=O)N2C(C(=O)O)=C(S[C@@H]3CN[C@H](C(=O)N(C)C)C3)[C@H](C)[C@H]12 [Meropenem] | 2.00 µg/mL
7 | CC(C)(O/N=C(\C(=O)N[C@@H]1C(=O)N2C(C(=O)[O-])=C(C[n+]3ccccc3)CS[C@H]12)c1csc(N)n1)C(=O)O [Ceftazidime] | 8.00 µg/mL
8 | CO/N=C(\C(=O)N[C@@H]1C(=O)N2C(C(=O)O)=C(COC(C)=O)CS[C@H]12)c1csc(N)n1 [Cephotaxime] | 512 µg/mL
9 | C[C@@H](O)[C@H]1C(=O)N2C(C(=O)O)=C(SCCN=CN)C[C@H]12 [Imipenem] | 2.00 µg/mL
10 | CO[C@@]1(NC(=O)Cc2cccs2)C(=O)N2C(C(=O)O)=C(COC(N)=O)CS[C@@H]21 [Cefoxitin] | 16.0 µg/mL

same assay, conditions: Escherichia coli, read-out: Minimum inhibitory concentration

Row | SMILES | MIC
11 | C[C@@H](O)[C@H]1C(=O)N2C(C(=O)O)=C(S[C@@H]3CN[C@H](C(=O)N(C)C)C3)[C@H](C)[C@H]12 [Meropenem] | 2 µg/mL
12 | CC(C)(O/N=C(\C(=O)N[C@@H]1C(=O)N2C(C(=O)[O-])=C(C[n+]3ccccc3)CS[C@H]12)c1csc(N)n1)C(=O)O [Ceftazidime] | 8 µg/mL
13 | C[C@@H](O)[C@H]1C(=O)N2C(C(=O)O)=C(SCCN=CN)C[C@H]12 [Imipenem] | 2 µg/mL
14 | CO[C@@]1(NC(=O)Cc2cccs2)C(=O)N2C(C(=O)O)=C(COC(N)=O)CS[C@@H]21 [Cefoxitin] | 16 µg/mL

same assay, conditions: bla NDM-1 clone; combined with M1, M17, M21, M61 or M75

Row | SMILES | MIC of antibiotic when combined with each of the five molecules
15 | C[C@@H](O)[C@H]1C(=O)N2C(C(=O)O)=C(S[C@@H]3CN[C@H](C(=O)N(C)C)C3)[C@H](C)[C@H]12 [Meropenem] | 1 µg/mL
16 | CC(C)(O/N=C(\C(=O)N[C@@H]1C(=O)N2C(C(=O)[O-])=C(C[n+]3ccccc3)CS[C@H]12)c1csc(N)n1)C(=O)O [Ceftazidime] | 4 µg/mL
17 | C[C@@H](O)[C@H]1C(=O)N2C(C(=O)O)=C(SCCN=CN)C[C@H]12 [Imipenem] | 1 µg/mL
18 | CO[C@@]1(NC(=O)Cc2cccs2)C(=O)N2C(C(=O)O)=C(COC(N)=O)CS[C@@H]21 [Cefoxitin] | 8 µg/mL
